Test results: US11207312B2, “Metallo-beta-lactamase inhibitors and methods of use thereof” (priority 2017, dated 2021)

Legend:
[1] = tested on: P. aeruginosa MB9798 (efflux+, IMP-1 plasmid); conditions: for MB9798 MITC95 P. aeruginosa uM Efflux WT: efflux + (MB9798) strain, imipenem at 2 μg/mL, in the presence of a class A, C, D serine β-lactamase inhibitor closely related to relebactam; for Efflux ratio: fold difference between efflux+ (MB9798) and efflux− (MB9799) strains
Source text: (§1) The strain background is Pseudomonas aeruginosa PAO1. A wild-type (M135919) and an isogenic strain in which multiple efflux pumps have been disrupted genetically were used. The MBL IMP-1, obtained from a clinical isolate was introduced into the strain pair by the following process:
(§2) The plasmid DNA was transformed into parental MB5919 (oprD+, efflux+, inducible AmpC) and MB5890 (oprD+, efflux−, inducible AmpC) isogenic strains by electroporation.
(§3) The strain set was then used as a pair to determine the effect of metallo-β-lactamase inhibitors of Formula I on the MIC of imipenem and/or ceftazidime. A fixed concentration of antibiotic is included in standard microbroth MIC tests, usually at the CLSI breakpoint concentration, A fixed amount of a class A/C beta-lactamase inhibitor is also included to inhibit the resident Pseudomonas AmpC enzyme. A serial titration of the metallo-β-lactamase inhibitor was included and the concentration of metallo-β-lactamase inhibitor which restores susceptibility of the strain to the included antibiotic was recorded. That concentration of metallo-β-lactamase inhibitor was then compared between the two strains to determine the fold difference between the efflux+(MB9798) and efflux−(MI39799) strains, which indicates the extent to which the MBLi is subject to efflux.

[2] = tested on: P. aeruginosa MB9799 (efflux-, IMP-1 plasmid); assay type: cell-based, Pseudomonas aeruginosa; conditions: efflux − (MB9799) strain; imipenem at 2 μg/mL; in the presence of a class A, C, D serine β-lactamase inhibitor closely related to relebactam
Source text: as §1, §2, §3

VIM-1 = VIM-1 (Pseudomonas aeruginosa (strain ATCC 15692 / DSM 22644 / CIP 104116 / JCM 14847 / LMG 12228 / 1C / PRS 101 / PAO1), UniProt A0A0F7KYQ8); assay: biochemical; conditions: CCF2-FA fluorescence assay, 2 hours at 25° C.; read-out: VIM1 IC50
Protocol: (§4) The Class B enzyme activities were measured in the presence of the test inhibitor in a fluorescence assay against a commercially available substrate consisting of a cephalosporin core linking 7-hydroxycoumarin to fluorescein (CCF2-FA). The enzyme (NDM-1, IMP-1 or VIM-1) and the substrate were diluted in 100 mM KH2PO4 buffer (pH 7) containing 0.005% Tween-20 and 10 μM ZnSO4. In the assay, the final concentration of enzyme was 1 pM, 2 pM and 30 pM for NDM-1, IMP-1 and VIM-1, respectively, and the final concentration of CCF2-FA was 1.25 μM. The test inhibitor was dissolved in dimethylsulfoxide and diluted 1:50 in the assay, resulting in a final concentration range of 20 μM to 0.00063 μM. In a 384-well microplate, the test inhibitor was incubated with the metallo-β-lactamase enzyme and the substrate for 2 hours at 25° C. Fluorescence at 460 nm following excitation at 405 nm was measured. The IC50 value was determined from semi-logarithmic plots of enzyme inhibition versus inhibitor concentration, with a curve generated using a 4-parameter fit.

IMP-1 = IMP-1 (Serratia marcescens, UniProt P52699); assay: biochemical; conditions: CCF2-FA fluorescence assay, 2 hours at 25° C.; read-out: IMP1 IC50
IMP-1, sequence (P52699 whole entry, looked up, species assumed): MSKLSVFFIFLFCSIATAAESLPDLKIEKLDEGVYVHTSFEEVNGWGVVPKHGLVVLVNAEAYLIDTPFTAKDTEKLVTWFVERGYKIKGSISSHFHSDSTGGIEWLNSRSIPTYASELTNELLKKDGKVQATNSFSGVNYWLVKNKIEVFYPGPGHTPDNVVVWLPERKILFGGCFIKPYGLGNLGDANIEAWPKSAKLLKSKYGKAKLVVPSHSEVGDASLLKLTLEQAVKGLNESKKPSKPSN
Protocol: as §4

[3] = tested on: Klebsiella pneumoniae expressing VIM-1 (IHMA599644); assay type: cell-based; conditions: with imipenem 1 μg/ml; 95% inhibition of bacterial growth
Protocol: (§5) The bacterial strains tested included the clinical strains Escherichia coil expressing NDM-1 (CLB30005, CLB30016), Serratia marcescens expressing IMP-1 (CL5741), and Klebsiella pneumoniae expressing VIM-1 (H-LMA599644). Inhibitor activity was measured in the presence and absence of imipenem in a 384-well microplate.
(§6) The clinical strains CLB30016, CL5741 and IHMA599644 were grown on trypticase soy agar containing 5% sheep's blood. The bacteria on agar plates were incubated at 35° C. with humidity overnight. The following day, individual colonies from each clinical strain were picked and resuspended in 5 ml saline to attain an OD600 of […], for CLB30016, C15741 and IHMA599644, respectively. These were further diluted 1:100 into 1.1× CAMHB and used to inoculate the test wells as described below.
(§7) Imipenem in 10 mM 3-(N-morpholino)propanesulfonic acid (MOPS, pH 7) was stored in single use aliquots at −80° C. […] On the day of the assay, 4 μl of antibiotic was added to 45 μl of bacteria followed by 1 μl of test compound and mixed by pipetting and with an orbital shaker. The concentration of antibiotic used in the assay was 1 μg/ml. Microplates were covered and incubated at 35° C. for 22 hours to 24 hours. At the end of the incubation, absorbance was determined using a spectrophotometer. The synergistic concentration of MBLI was determined by identifying the lowest concentration of test compound in the presence of a given concentration of antibiotic that was required to inhibit 95% of the growth of the bacteria. The results for Examples 1-209 are reported in Table 1, expressed as the concentration of compound that potentiated the action of antibiotic (imipenem) affecting 95% inhibition of bacterial growth (MITC95).

[4] = tested on: Serratia marcescens expressing IMP-1 (CL5741); assay type: cell-based; conditions: with imipenem 1 μg/ml; 95% inhibition of bacterial growth
Protocol: as §5, §6, §7

[5] = tested on: Escherichia coli expressing NDM-1 (CLB30016); assay type: cell-based; conditions: with imipenem 1 μg/ml; 95% inhibition of bacterial growth
Protocol: as §5, §6, §7

VIM-2 = VIM-2 (Escherichia coli, UniProt Q5U7L7); assay: biochemical; conditions: CCF2-FA fluorescence assay; read-out: VIM2 IC50
NDM-1 = NDM-1 (Klebsiella pneumoniae, UniProt C7C422); assay: biochemical; assay type: biochemical; conditions: CCF2-FA fluorescence assay, 2 hours at 25° C.
NDM-1, sequence (C7C422 whole entry, looked up, species assumed): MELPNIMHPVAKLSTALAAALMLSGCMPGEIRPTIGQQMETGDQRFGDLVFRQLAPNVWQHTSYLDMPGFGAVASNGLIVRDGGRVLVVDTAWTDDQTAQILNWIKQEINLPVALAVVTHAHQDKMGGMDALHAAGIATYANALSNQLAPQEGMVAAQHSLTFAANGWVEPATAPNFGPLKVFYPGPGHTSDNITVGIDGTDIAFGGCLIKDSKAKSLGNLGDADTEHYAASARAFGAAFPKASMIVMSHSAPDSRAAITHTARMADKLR
Protocol: as §4

## NC[C@@H](O)CNS(=O)(=O)c1ccc(N2CC[C@@H](N)[C@@H](F)C2)c(-c2nn[nH]n2)c1S(N)(=O)=O (single isomer, unassigned) [Example 1]
[1]
  MB9798 MITC95 P. aeruginosa uM Efflux WT: 0.78 µM
  Efflux ratio: 2.00
[2]
  MB9799 MITC95 P. aeruginosa uM Efflux Mutant: 0.39 µM
VIM-1
  IC50: 0.31 nM
IMP-1
  IC50: 5.02 nM
[3]
  IHMA599644 K. pneumoniae MITC95 VIM: 0.39 µM
[4]
  CL5741 S. marcescens MITC95 IMP: 0.20 µM
[5]
  CLB30016 E. coli MITC95 NDM: 0.10 µM
VIM-2
  IC50: 3.58 nM

## NS(=O)(=O)c1ccc(N2CCC3(CCNCC3)C2=O)c(-c2nn[nH]n2)c1S(N)(=O)=O [Example 134, 4-(1-oxo-2,8-diazaspiro[4.5]decan-2-yl)-3-(2H-tetrazol-5-yl)benzene-1,2-disulfonamide]
[1]
  MB9798 MITC95 P. aeruginosa uM Efflux WT: 50.00 µM
  Efflux ratio: 8.00
[2]
  MB9799 MITC95 P. aeruginosa uM Efflux Mutant: 6.25 µM
VIM-1
  IC50: 62.9 nM
IMP-1
  IC50: 480 nM
NDM-1
  IC50: 182 nM
[3]
  IHMA599644 K. pneumoniae MITC95 VIM: 6.25 µM
[4]
  CL5741 S. marcescens MITC95 IMP: 12.50 µM
[5]
  CLB30016 E. coli MITC95 NDM: 6.25 µM

## NC1CCCN(c2ccc(S(=O)(=O)C3CNC3)c(S(N)(=O)=O)c2-c2nnn[nH]2)CC1 (stereo not drawn) [Example 32, 3-(4-aminoazepan-1-yl)-6-(azetidin-3-ylsulfonyl)-2-(1H-tetrazol-5-yl)benzenesulfonamide]
[1]
  MB9798 MITC95 P. aeruginosa uM Efflux WT: 12.50 µM
  Efflux ratio: 4.00
[2]
  MB9799 MITC95 P. aeruginosa uM Efflux Mutant: 3.13 µM
VIM-1
  IC50: 2.14 nM
IMP-1
  IC50: 191 nM
NDM-1
  IC50: 122 nM
[3]
  IHMA599644 K. pneumoniae MITC95 VIM: 1.56 µM
[4]
  CL5741 S. marcescens MITC95 IMP: 3.13 µM
[5]
  CLB30016 E. coli MITC95 NDM: 6.25 µM

## N[C@H]1CCCN(c2ccc(S(=O)(=O)C3CNC3)c(S(N)(=O)=O)c2-c2nnn[nH]2)C1 [Example 29, (S)-3-(3-aminopiperidin-1-yl)-6-(azetidin-3-ylsulfonyl)-2-(1H-tetrazol-5-yl)benzenesulfonamide]
[1]
  MB9798 MITC95 P. aeruginosa uM Efflux WT: 25.00 µM
  Efflux ratio: 8.00
[2]
  MB9799 MITC95 P. aeruginosa uM Efflux Mutant: 3.13 µM
VIM-1
  IC50: 9.45 nM
IMP-1
  IC50: 229 nM
NDM-1
  IC50: 86 nM
[3]
  IHMA599644 K. pneumoniae MITC95 VIM: 0.78 µM
[4]
  CL5741 S. marcescens MITC95 IMP: 6.25 µM
[5]
  CLB30016 E. coli MITC95 NDM: 1.56 µM

## NC[C@@H](O)CNS(=O)(=O)c1ccc(Nc2ncc[nH]2)c(-c2nn[nH]n2)c1S(N)(=O)=O [Example 203, (R)-4-((1H-imidazol-2-yl)amino)-N1-(3-amino-2-hydroxypropyl)-3-(2-tetrazol-5-yl)benzene-1,2-disulfonamide bis(2,2,2-trifluoroacetate)]
[1]
  MB9798 MITC95 P. aeruginosa uM Efflux WT: 3.13 µM
  Efflux ratio: 2.00
[2]
  MB9799 MITC95 P. aeruginosa uM Efflux Mutant: 1.56 µM
VIM-1
  IC50: 8.5 nM
IMP-1
  IC50: 26.4 nM
[3]
  IHMA599644 K. pneumoniae MITC95 VIM: 0.78 µM
[4]
  CL5741 S. marcescens MITC95 IMP: 0.78 µM
[5]
  CLB30016 E. coli MITC95 NDM: 0.20 µM
VIM-2
  IC50: 19.6 nM

## NC[C@@H](O)CNS(=O)(=O)c1ccc(N2CCC3(CC2)CNC(=O)OC3)c(-c2nn[nH]n2)c1S(N)(=O)=O [Example 26, (R)-N^1-(3-amino-2-hydroxypropyl)-4-(3-oxo-2-oxa-4,9-diazaspiro[5.5]undecan-9-yl)-3-(2H-tetrazol-5-yl)benzene-1,2-disulfonamide]
[1]
  MB9798 MITC95 P. aeruginosa uM Efflux WT: 6.25 µM
  Efflux ratio: 2.00
[2]
  MB9799 MITC95 P. aeruginosa uM Efflux Mutant: 3.13 µM
VIM-1
  IC50: 0.63 nM
IMP-1
  IC50: 1.02 nM
[3]
  IHMA599644 K. pneumoniae MITC95 VIM: 12.50 µM
[4]
  CL5741 S. marcescens MITC95 IMP: 6.25 µM
[5]
  CLB30016 E. coli MITC95 NDM: 12.50 µM
VIM-2
  IC50: 2.74 nM

## NCCS(=O)(=O)c1ccc(N2CCCCC2)c(-c2nnn[nH]2)c1S(N)(=O)=O [Example 14]
[1]
  MB9798 MITC95 P. aeruginosa uM Efflux WT: 12.50 µM
  Efflux ratio: 16.00
[2]
  MB9799 MITC95 P. aeruginosa uM Efflux Mutant: 0.78 µM
VIM-1
  IC50: 0.73 nM
IMP-1
  IC50: 1.34 nM
NDM-1
  IC50: 3.94 nM
[3]
  IHMA599644 K. pneumoniae MITC95 VIM: 2.34 µM
[4]
  CL5741 S. marcescens MITC95 IMP: 2.34 µM
[5]
  CLB30016 E. coli MITC95 NDM: 0.78 µM

## NCCS(=O)(=O)c1ccc(N2CCOCC2)c(-c2nnn[nH]2)c1S(N)(=O)=O [Example 15]
[1]
  MB9798 MITC95 P. aeruginosa uM Efflux WT: 12.50 µM
  Efflux ratio: 8.00
[2]
  MB9799 MITC95 P. aeruginosa uM Efflux Mutant: 1.56 µM
VIM-1
  IC50: 2.51 nM
IMP-1
  IC50: 6.5 nM
NDM-1
  IC50: 11.5 nM
[3]
  IHMA599644 K. pneumoniae MITC95 VIM: 3.13 µM
[4]
  CL5741 S. marcescens MITC95 IMP: 3.13 µM
[5]
  CLB30016 E. coli MITC95 NDM: 1.56 µM

## N[C@@H]1CCCN(c2ccc(S(=O)(=O)C3CNC3)c(S(N)(=O)=O)c2-c2nnn[nH]2)C1 [Example 28, (R)-3-(3-aminopiperidin-1-yl)-6-(azetidin-3-ylsulfonyl)-2-(1H-tetrazol-5-yl)benzenesulfonamide]
[1]
  MB9798 MITC95 P. aeruginosa uM Efflux WT: 50.00 µM
  Efflux ratio: 8.00
[2]
  MB9799 MITC95 P. aeruginosa uM Efflux Mutant: 6.25 µM
VIM-1
  IC50: 37.2 nM
IMP-1
  IC50: 463 nM
NDM-1
  IC50: 61.9 nM
[3]
  IHMA599644 K. pneumoniae MITC95 VIM: 1.56 µM
[4]
  CL5741 S. marcescens MITC95 IMP: 6.25 µM
[5]
  CLB30016 E. coli MITC95 NDM: 0.78 µM

## NC1CCCCN(c2ccc(S(=O)(=O)C3CNC3)c(S(N)(=O)=O)c2-c2nnn[nH]2)C1 (stereo not drawn) [Example 33, 3-(3-aminoazepan-1-yl)-6-(azetidin-3-ylsulfonyl)-2-(1H-tetrazol-5-yl)benzenesulfonamide]
[1]
  MB9798 MITC95 P. aeruginosa uM Efflux WT: 25.00 µM
  Efflux ratio: 8.00
[2]
  MB9799 MITC95 P. aeruginosa uM Efflux Mutant: 3.13 µM
VIM-1
  IC50: 4.43 nM
IMP-1
  IC50: 137 nM
NDM-1
  IC50: 110 nM
[3]
  IHMA599644 K. pneumoniae MITC95 VIM: 0.78 µM
[4]
  CL5741 S. marcescens MITC95 IMP: 3.13 µM
[5]
  CLB30016 E. coli MITC95 NDM: 1.56 µM

## NS(=O)(=O)c1c(S(=O)(=O)C2CNC2)ccc(N2CCC3(CCNCC3)CC2)c1-c1nnn[nH]1 [Example 30, 6-(azetidin-3-ylsulfonyl)-3-(3,9-diazaspiro[5.5]undecan-3-yl)-2-(1H-tetrazol-5-yl)benzenesulfonamide]
[1]
  MB9798 MITC95 P. aeruginosa uM Efflux WT: 1.56 µM
  Efflux ratio: 2.00
[2]
  MB9799 MITC95 P. aeruginosa uM Efflux Mutant: 0.78 µM
VIM-1
  IC50: 2.01 nM
IMP-1
  IC50: 5.2 nM
NDM-1
  IC50: 2.62 nM
[3]
  IHMA599644 K. pneumoniae MITC95 VIM: 1.56 µM
[4]
  CL5741 S. marcescens MITC95 IMP: 1.56 µM
[5]
  CLB30016 E. coli MITC95 NDM: 0.78 µM
